Laboratory results reported in ChEMBL document CHEMBL3621068, “Synthesis and biological evaluation of a new class of quinazolinoneazoles as potential antimicrobial agents and their interactions with calf thymus DNA and human serum albumin” (Medchemcomm, 2015).
Values after ≈ are worked out from the molar mass of the structure shown.

Columns and labels:
Type in all cases: functional
[1] = test system: Aspergillus flavus; assay: Antifungal activity against Aspergillus flavus ATCC 204304 after 24 hrs by micro broth dilution assay; conditions: ATCC 204304, 24 h
[2] = test system: Bacillus sp.; assay: Antibacterial activity against Bacillus proteus ATCC 13315 after 24 hrs by micro broth dilution assay; conditions: Bacillus sp. (in: firmicutes), ATCC 13315, 24 h
[3] = test system: Saccharomyces cerevisiae; assay: Antifungal activity against Beer yeast ATCC 9763 after 24 hrs by micro broth dilution assay; conditions: ATCC 9763, 24 h
[4] = Antibacterial activity against Eberthella typhosa ATCC 14028 after 24 hrs by micro broth dilution assay; conditions: ATCC 14028, 24 h
[5] = test system: Candida albicans; assay: Antifungal activity against Candida albicans ATCC 10231 after 24 hrs by micro broth dilution assay; conditions: ATCC 10231, 24 h
[6] = test system: Staphylococcus aureus; assay: Antibacterial activity against methicillin-resistant Staphylococcus aureus N315 after 24 hrs by micro broth dilution assay; conditions: N315, 24 h
[7] = test system: Staphylococcus aureus; assay: Antibacterial activity against Staphylococcus aureus ATCC 25923 after 24 hrs by micro broth dilution assay; conditions: ATCC 25923, 24 h
[8] = test system: Pseudomonas aeruginosa; assay: Antibacterial activity against Pseudomonas aeruginosa ATCC 27853 a after 24 hrs by micro broth dilution assay; conditions: ATCC 27853, 24 h
[9] = test system: Escherichia coli; assay: Antibacterial activity against Escherichia coli DH52 after 24 hrs by micro broth dilution assay; conditions: DH52, 24 h
[10] = test system: Candida; assay: Antifungal activity against Candida mycoderma ATCC 9888 after 24 hrs by micro broth dilution assay; conditions: ATCC 9888, 24 h
[11] = test system: Micrococcus luteus; assay: Antibacterial activity against Micrococcus luteus ATCC 4698 after 24 hrs by micro broth dilution assay; conditions: ATCC 4698, 24 h
[12] = test system: Bacillus spizizenii; assay: Antibacterial activity against Bacillus subtilis ATCC 6633 after 24 hrs by micro broth dilution assay; conditions: ATCC 6633, 24 h
[13] = test system: Cyberlindnera jadinii; assay: Antifungal activity against Candida utilis ATCC 9950 after 24 hrs by micro broth dilution assay; conditions: Williopsis jadinii, ATCC 9950, 24 h

SMILES: Cc1ncc([N+](=O)[O-])n1CCCCn1cnc2cc(Cl)ccc2c1=O
- MIC [1]: 40 µM (≈ 14.5 µg/mL)
- MIC [2]: 20 µM (≈ 7.24 µg/mL)
- MIC [3]: 40 µM (≈ 14.5 µg/mL)
- MIC [4]: 20 µM (≈ 7.24 µg/mL)
- MIC [5]: 20 µM (≈ 7.24 µg/mL)
- MIC [6]: 20 µM (≈ 7.24 µg/mL)
- MIC [7]: 40 µM (≈ 14.5 µg/mL)
- MIC [8]: > 1420 µM
- MIC [9]: 40 µM (≈ 14.5 µg/mL)
- MIC [10]: 40 µM (≈ 14.5 µg/mL)
- MIC [11]: 40 µM (≈ 14.5 µg/mL)
- MIC [12]: 40 µM (≈ 14.5 µg/mL)
- MIC [13]: 20 µM (≈ 7.24 µg/mL)

SMILES: Cc1ncc([N+](=O)[O-])n1CCCCCCn1cnc2cc(Cl)ccc2c1=O
- MIC [1]: 40 µM (≈ 15.6 µg/mL)
- MIC [2]: 20 µM (≈ 7.8 µg/mL)
- MIC [3]: 20 µM (≈ 7.8 µg/mL)
- MIC [4]: 20 µM (≈ 7.8 µg/mL)
- MIC [5]: 20 µM (≈ 7.8 µg/mL)
- MIC [6]: 20 µM (≈ 7.8 µg/mL)
- MIC [7]: 20 µM (≈ 7.8 µg/mL)
- MIC [8]: > 1310 µM
- MIC [9]: 40 µM (≈ 15.6 µg/mL)
- MIC [10]: 20 µM (≈ 7.8 µg/mL)
- MIC [11]: 40 µM (≈ 15.6 µg/mL)
- MIC [12]: 40 µM (≈ 15.6 µg/mL)
- MIC [13]: 20 µM (≈ 7.8 µg/mL)

SMILES: Cc1ncc([N+](=O)[O-])n1CCCCCn1cnc2cc(F)ccc2c1=O
- MIC [1]: 20 µM (≈ 7.19 µg/mL)
- MIC [2]: 20 µM (≈ 7.19 µg/mL)
- MIC [3]: 20 µM (≈ 7.19 µg/mL)
- MIC [4]: 20 µM (≈ 7.19 µg/mL)
- MIC [5]: 40 µM (≈ 14.4 µg/mL)
- MIC [6]: 20 µM (≈ 7.19 µg/mL)
- MIC [7]: 40 µM (≈ 14.4 µg/mL)
- MIC [8]: > 1420 µM
- MIC [9]: 40 µM (≈ 14.4 µg/mL)
- MIC [10]: 40 µM (≈ 14.4 µg/mL)
- MIC [11]: 20 µM (≈ 7.19 µg/mL)
- MIC [12]: 20 µM (≈ 7.19 µg/mL)
- MIC [13]: 20 µM (≈ 7.19 µg/mL)

SMILES: O=c1c2ccc(Cl)cc2ncn1CCCCCCn1cnc([N+](=O)[O-])c1
- MIC [1]: 170 µM (≈ 63.9 µg/mL)
- MIC [2]: 90 µM (≈ 33.8 µg/mL)
- MIC [3]: 90 µM (≈ 33.8 µg/mL)
- MIC [4]: 340 µM (≈ 128 µg/mL)
- MIC [5]: 40 µM (≈ 15 µg/mL)
- MIC [6]: 170 µM (≈ 63.9 µg/mL)
- MIC [7]: 340 µM (≈ 128 µg/mL)
- MIC [8]: 340 µM (≈ 128 µg/mL)
- MIC [9]: 170 µM (≈ 63.9 µg/mL)
- MIC [10]: 40 µM (≈ 15 µg/mL)
- MIC [11]: 40 µM (≈ 15 µg/mL)
- MIC [12]: 40 µM (≈ 15 µg/mL)
- MIC [13]: 340 µM (≈ 128 µg/mL)

SMILES: O=c1c2ccc(Cl)cc2ncn1CCn1cncn1
- MIC [1]: 930 µM (≈ 256 µg/mL)
- MIC [2]: 930 µM (≈ 256 µg/mL)
- MIC [3]: 460 µM (≈ 127 µg/mL)
- MIC [4]: 930 µM (≈ 256 µg/mL)
- MIC [5]: 930 µM (≈ 256 µg/mL)
- MIC [6]: 460 µM (≈ 127 µg/mL)
- MIC [7]: 930 µM (≈ 256 µg/mL)
- MIC [8]: 30 µM (≈ 8.27 µg/mL)
- MIC [9]: 230 µM (≈ 63.4 µg/mL)
- MIC [10]: 460 µM (≈ 127 µg/mL)
- MIC [11]: 30 µM (≈ 8.27 µg/mL)
- MIC [12]: 460 µM (≈ 127 µg/mL)
- MIC [13]: 460 µM (≈ 127 µg/mL)

SMILES: O=c1c2ccc(F)cc2ncn1CCCCBr
- MIC [1]: 1710 µM (≈ 512 µg/mL)
- MIC [2]: 860 µM (≈ 257 µg/mL)
- MIC [3]: 860 µM (≈ 257 µg/mL)
- MIC [4]: > 1710 µM
- MIC [5]: 860 µM (≈ 257 µg/mL)
- MIC [6]: 430 µM (≈ 129 µg/mL)
- MIC [7]: > 1710 µM
- MIC [8]: > 1710 µM
- MIC [9]: 1710 µM (≈ 512 µg/mL)
- MIC [10]: > 1710 µM
- MIC [11]: 860 µM (≈ 257 µg/mL)
- MIC [12]: 1710 µM (≈ 512 µg/mL)
- MIC [13]: 430 µM (≈ 129 µg/mL)

SMILES: Cc1ncc([N+](=O)[O-])n1CCCCCn1cnc2cc(Cl)ccc2c1=O
- MIC [1]: 20 µM (≈ 7.52 µg/mL)
- MIC [2]: 20 µM (≈ 7.52 µg/mL)
- MIC [3]: 40 µM (≈ 15 µg/mL)
- MIC [4]: 20 µM (≈ 7.52 µg/mL)
- MIC [5]: 20 µM (≈ 7.52 µg/mL)
- MIC [6]: 20 µM (≈ 7.52 µg/mL)
- MIC [7]: 40 µM (≈ 15 µg/mL)
- MIC [8]: > 1360 µM
- MIC [9]: 20 µM (≈ 7.52 µg/mL)
- MIC [10]: 20 µM (≈ 7.52 µg/mL)
- MIC [11]: 40 µM (≈ 15 µg/mL)
- MIC [12]: 20 µM (≈ 7.52 µg/mL)
- MIC [13]: 20 µM (≈ 7.52 µg/mL)

SMILES: Cc1ncc([N+](=O)[O-])n1CCn1cnc2cc(Cl)ccc2c1=O
- MIC [1]: 20 µM (≈ 6.67 µg/mL)
- MIC [2]: 50 µM (≈ 16.7 µg/mL)
- MIC [3]: 50 µM (≈ 16.7 µg/mL)
- MIC [4]: 20 µM (≈ 6.67 µg/mL)
- MIC [5]: 50 µM (≈ 16.7 µg/mL)
- MIC [6]: 50 µM (≈ 16.7 µg/mL)
- MIC [7]: 100 µM (≈ 33.4 µg/mL)
- MIC [8]: > 1530 µM
- MIC [9]: 100 µM (≈ 33.4 µg/mL)
- MIC [10]: 50 µM (≈ 16.7 µg/mL)
- MIC [11]: 100 µM (≈ 33.4 µg/mL)
- MIC [12]: 50 µM (≈ 16.7 µg/mL)
- MIC [13]: 50 µM (≈ 16.7 µg/mL)

SMILES: O=c1c2ccc(Cl)cc2ncn1CCCCBr
- MIC [1]: > 1620 µM
- MIC [2]: 410 µM (≈ 129 µg/mL)
- MIC [3]: 810 µM (≈ 256 µg/mL)
- MIC [4]: > 1620 µM
- MIC [5]: > 1620 µM
- MIC [6]: 810 µM (≈ 256 µg/mL)
- MIC [7]: > 1620 µM
- MIC [8]: > 1620 µM
- MIC [9]: 810 µM (≈ 256 µg/mL)
- MIC [10]: > 1620 µM
- MIC [11]: 810 µM (≈ 256 µg/mL)
- MIC [12]: 1620 µM (≈ 511 µg/mL)
- MIC [13]: 410 µM (≈ 129 µg/mL)

SMILES: O=c1c2ccc(Cl)cc2ncn1CCBr
- MIC [1]: > 1780 µM
- MIC [2]: 890 µM (≈ 256 µg/mL)
- MIC [3]: 890 µM (≈ 256 µg/mL)
- MIC [4]: > 1780 µM
- MIC [5]: > 1780 µM
- MIC [6]: 890 µM (≈ 256 µg/mL)
- MIC [7]: > 1780 µM
- MIC [8]: > 1780 µM
- MIC [9]: 1780 µM (≈ 512 µg/mL)
- MIC [10]: > 1780 µM
- MIC [11]: 450 µM (≈ 129 µg/mL)
- MIC [12]: 1780 µM (≈ 512 µg/mL)
- MIC [13]: 890 µM (≈ 256 µg/mL)
